For data set [1], the system named is lymphoma and myeloma cells. The settings on record: Schmidt et al., 2009; cited from earlier work.
In another data set the test system is Wnt signaling. Kind of data set: CellSensor LEF/TCF-bla SW480 cell-based assay (Wnt signaling inhibition). The settings on record: Homo sapiens; LEF/TCF-bla SW480 cells, 20 hours. Further details: species or system human. The protocol: To determine the specificity of compounds on Wnt/[…]-catenin pathway inhibition, CellSensor LEF/TCF-bla SW480 cell-based assay (Invitrogen, Carlsbad, Calif.) was used according to the supplier's instructions, but modified for a 96 well format. Cells were plated at 25,000 cells/well in assay medium in 96-well black plates with clear bottom (Corning) the day prior to compound treatment.

Data set [2] concerns Wnt3a-induced transcription. Kind of data set: Stable Super8XTOPflash reporter HEK293 cells stimulated with Wnt3a. Type of data set: cell-based, human. On the procedure: FIG. 1. Inhibition of Wnt/β-catenin signaling by EA. […] Cells were lysed and luciferase activity was quantified. Total protein levels were determined by Bradford Assay and serve as a control for total cell number. (B) HEK293 cells were co-transfected with TOPflash reporter construct, along with expression plasmids for Wnt1, Wnt3, LRP6, Dvl and β-catenin as indicated. […] (C) HEK293 cells were transfected with FOPflash reporter with or without an expression plasmid for β-catenin. […] (D) HEK293 cells were transfected with NFAT reporter and expression plasmid for NFATc. […] The results are expressed as fold induction of luciferase activity compared to the basal level, and are the means of three experiments±SEM. The Super8XTOPflash construct (kindly provided by Dr. R. Moon) was stably transfected into HEK293 cells, and single cell clones were isolated. […] (2003) and Willert et al. (2008).

The next data set has as its target T1, LEF-1/β-catenin complex (Homo sapiens, UniProt Q9UJU2).
T1 construct: endogenous in cells; host or cells: SW480 cells
Kind of data set: Co-immunoprecipitation of the β-catenin complex in SW480 cells. Format: cell-based. Conditions: increasing EA, 16 hours. The protocol:
FIG. 7. EA destabilizes the LEF-1/β-catenin complex. (A) SW480 cells were treated with increasing amounts of EA for 16 hours. Cells were lysed, and IP was completed with anti-β-catenin monoclonal antibody. The immune complexes were analyzed by immunoblotting with anti-LEF-1, anti-α-catenin and anti-β-catenin antibodies. (B) EA inhibits Wnt/β-catenin signaling in SW480 cells. SW480 cells were transfected with TOPflash reporter and control plasmid pCMXβgal. After transfection for 24 hours, cells were treated with increasing concentrations of EA for another 24 hours as indicated. Cells were then harvested and luciferase values were determined. The results are expressed as relative luciferase activity (%) normalized to a β-galactosidase control.
Primary CLL cells and SW480 cells were treated with the indicated amounts of EA. Cells were washed twice with PBS and resuspended in 0.5 mL lysis buffer (20 mM Tris-HCl, pH 8.0/10% glycerol/5 mM MgCl2/0.15 M KCl/0.1% Nonidet P-40 with protease inhibitors). For CLL cells, lysates of 1 to 2×10^7 cells were incubated with anti-LEF-1 antibody at a 1:1000 dilution overnight at 4° C., and then with saturating amounts of protein G plus/protein A agarose beads (Calbiochem) at 4° C. for 2 hours before centrifugation at 15,000 g for 5 minutes. […]

The next data set concerns Fzd5 mRNA. Kind of data set: Real-time PCR of Fzd5 in CLL cells. The settings on record: CLL cells from three patients, 16 hours. Format: cell-based, human. (In general: Real-time PCR tracks product formation cycle by cycle.)
The conditions of data set [3]: continuous i.v. infusion, cited from earlier work.
The next data set has as its system Wnt/β-catenin signaling. Description: TOPflash reporter assay in transfected HEK293 cells. Type of data set: cell-based, human. (In general: A reporter such as luciferase makes a cellular process visible.)
The test system of another data set is Primary CLL cells. Description: Cell viability assay (MTT) with primary CLL cells. Conditions: 48 hours.

“And” between values parts separate entries of the source, which are not always exact repeats. Equal values may be shown once. A value given as a limit tells only on which side of the number the result lay.

What is called IC50 is the concentration that inhibits the measured activity by half. One may read the EC50 as the concentration at which the effect is half-maximal.

T1 sequence (Q9UJU2 whole entry, one chain of several): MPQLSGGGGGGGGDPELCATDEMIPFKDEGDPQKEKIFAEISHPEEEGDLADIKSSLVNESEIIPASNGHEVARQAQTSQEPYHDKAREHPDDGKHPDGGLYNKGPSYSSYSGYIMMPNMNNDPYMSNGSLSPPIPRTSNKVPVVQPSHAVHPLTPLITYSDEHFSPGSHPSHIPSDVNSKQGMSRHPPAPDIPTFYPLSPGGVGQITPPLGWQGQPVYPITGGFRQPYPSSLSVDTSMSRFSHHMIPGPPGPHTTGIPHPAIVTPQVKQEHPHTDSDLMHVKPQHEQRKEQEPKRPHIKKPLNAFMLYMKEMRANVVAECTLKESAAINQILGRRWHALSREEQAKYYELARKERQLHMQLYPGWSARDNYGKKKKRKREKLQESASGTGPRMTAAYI

`C=C(CC)C(=O)c1ccc(OCC(=O)O)c(Cl)c1Cl` [Compound 1, Ethacrynic acid]: in data set [1], the induction of apoptosis result is reported as “significant induction of apoptosis”. Also, the IC50 in the data set with Wnt signaling was 32.7 µM; in data set [2] (Homo sapiens, HEK293, read-out: IC50 for inhibition of Wnt3A-induced transcription), about 25 µM; with Primary CLL cells (read-out: IC50-EA, Primary CLL cells from nine patients, mean) it was 8.56 µM. For the same compound, the “effect on Wnt3a-induced transcription of the SuperTOPflash reporter” value in data set [2] (Wnt3a 10 nM, EA 20-35 μM, 18 hours) is given as “blocked Wnt3a-induced transcription in a dose-dependent manner”. Also, the “LEF-1 levels in the β-catenin complex” value at LEF-1/β-catenin complex is reported as “decreased LEF-1 levels in the β-catenin complex in a concentration-dependent manner”. Also, the “α-catenin levels in the β-catenin complex” value on LEF-1/β-catenin complex is “little effect”. In addition, the Fzd5 expression result in the data set with Fzd5 mRNA was “dose-dependent enhancement”. Moreover, the “time for which plasma concentrations are sustained” value in data set [3] (above 1 μg/ml) was “up to 3 hours”. For the same compound, in data set [3] (listed as EA), the sustained plasma concentrations entry is “greater than 1 μg/ml and > 3.3 μM”. In addition, the “effect on Wnt1/LRP6 or Wnt3/LRP6, Dvl, and β-catenin-induced transcription” value with Wnt/β-catenin signaling (50 μM EA, 24 hours) is “reduced”. For the same compound, in the data set on Wnt/β-catenin signaling (Dvl-activated, generally at 10 μM and 50 μM, overnight), the “inhibition of TOPflash activity (drug library screen)” value is at least 30%. Also, the EC50 with Primary CLL cells (read-out: CLL Inhibition EC50, CLL survival, MTT) came out at 9.9 µM.

The record behind these values is US20110306671A1, “AMIDE DERIVATIVES OF ETHACRYNIC ACID” (The Regents of the The University of California, priority 2008, published 2011).
